Results: patent US20250360134A1, “6-6 OR 5-6 FUSED BICYCLIC COMPOUNDS COMPRISING A PYRI(MI)DINE RING USEFUL IN THE|TREATMENT OF INFECTIOUS DISEASES” (INSTITUT NATIONAL DE LA SANTE ET DE LA RECHERCHE MEDICALE …, priority 2020, published 2025)
Structures can show the parent of a compound that is named as a salt. Where two headings read alike, the source gives them in different places.

Assays:
[1] = Cytotoxicity evaluation, MTT; format: cell-based, human; settings: HepG2 cells (hepatocarcinoma-derived, ATCC HB-8065); human HepG2 cells, 72 hours, MTT
Description: The aim of this assay was to evaluate the impact of metabolic activation of the tested compounds on cell viability.
A cytotoxicity evaluation was performed using the method reported in Emami S A et al., Iran J Basic Med Sci 2012; 15:807-11 to determine the cytotoxic concentrations 50% (CC50) and using doxorubicin as a cytotoxic reference compound. These assays were performed in human HepG2 cells. HepG2 cells were purchased from ATCC (ref HB-8065). These cells are a commonly used human hepatocarcinoma-derived cell line that has characteristics similar to those of primary hepatocytes. These cells express many hepatocyte-specific metabolic enzymes, thus enabling the cytotoxicity of tested product metabolites to be evaluated. Briefly, cells in 100 μl of complete RPMI medium [RPMI supplemented with 10% FCS, 1% 1-glutamine (200 mM), penicillin (100 U/ml), and streptomycin (100 μg/ml)] were inoculated into each well of 96-well plates and incubated at 37° C. in a humidified chamber in 6% CO2. After 24 hours, 100 μl of medium with test compound at various concentrations dissolved in DMSO (final concentration less than 0.5% v/v) was added, and the plates were incubated for 72 hours at 37° C. Duplicate assays were performed for each sample. Each well was microscopically examined for precipitate formation before the medium was aspirated from the wells. After aspiration, 100 μl of MTT solution (0.5 mg/ml in medium without FCS) were then added to each well. Cells were incubated for 2 hours at 37° C. MTT solution was removed, and DMSO (100 μl) was added to dissolve the resulting blue formazan crystals. Plates were shaken vigorously (300 rpm) for 5 min. The absorbance was measured at 570 nm with 630 nm as reference wavelength in a BIO-TEK ELx808 Absorbance Microplate Reader. DMSO was used as blank and doxorubicin (Sigma-Aldrich) as positive control. Cell viability was calculated as percentage of control (cells incubated without compound).

[2] = tested on: Plasmodium telomeric sequence FPf8T; assay: FRET-melting, FPf8T; settings: K+ condition, 2 μM compound, 0.2 μM oligonucleotide
[3] = tested on: Trypanosoma 9 and 11 chromosomic sequence FTrypBT; assay: FRET-melting, FTrypBT; settings: K+ condition, 2 μM compound, 0.2 μM oligonucleotide
[4] = tested on: Plasmodium telomeric sequence FPf1T; assay: FRET-melting, FPf1T; settings: K+ condition, 2 μM compound, 0.2 μM oligonucleotide
Plasmodium falciparum W2 = assay: In vitro antiplasmodial activity, SYBR Green I, strain W2; settings: Plasmodium falciparum, W2, 48 h, read-out: IC50 Plasmodium falciparum W2, chloroquine-resistant strain W2, 48-hour incubation
Description: (§1) The in vitro antiplasmodial activities were tested over concentrations ranging from 39 to 40 μm against culture-adapted Plasmodium falciparum: reference strains 3D7 and W2. […] The parasites were cultivated in RPMI medium (Sigma-Aldrich, Lyon, France) supplemented with 0.5% Albumax I (Life Technologies Corporation, Paisley, UK), hypoxanthine (Sigma-Aldrich), and gentamicin (Sigma-Aldrich) with human erythrocytes and were incubated at 37° C. in a candle jar, as described in Desjardins R E et al., Antimicrob Agents Chemother, 1979; 16:710-18.
(§2) The P. falciparum drug susceptibility test was carried out in 96-well flat bottom sterile plates in a final volume of 250 μL. After a 48-hour incubation with the drugs, quantities of DNA in treated and control cultures of parasites in human erythrocytes were quantified using the SYBR Green I (Sigma-Aldrich) fluorescence-based method as described in Bennett T N et al, Antimicrob Agents Chemother, 2004; 48:1807-10. Briefly, after incubation, plates were frozen at −20° C. until use. Plates were then thawed for 2 hours at room temperature, and 100 μL of each homogenized culture was transferred to a well of a 96-well flat bottom sterile black plate (Nunc, Inc., Rochester, NY) that contained 100 μL of the SYBR Green I lysis buffer (2×SYBR Green, 20 mM Tris base pH 7.5, 5 mM EDTA, 0.008% w/v saponin, 0.08% w/v Triton X-100). […] Plates were incubated for 1 hour at room temperature and then read on a fluorescence plate reader (Tecan, Grödig, Austria) using excitation and emission wavelengths of 485 and 535 nm, respectively. Concentrations inhibiting 50% of the parasite's growth (half maximal inhibitory concentration or IC50 values) were then calculated from the obtained experimental results by non-linear regression analysis of data from dose-response curves, using TableCurve 2D version 5.0 software (Systat Software, San Jose, CA). IC50 values are reported as means calculated from three independent experiments, as described in H. Kaddouri et al., Antimicrob.

[5] = tested on: human duplex sequence FdxT; assay: FRET-melting, FdxT; settings: duplex control, K+ condition, 2 μM compound, 0.2 μM oligonucleotide
[6] = tested on: T. brucei brucei AnTat 1.9; assay: In vitro antitrypanosomal activity, Alamar Blue assay; format: cell-based, Trypanosoma brucei brucei; settings: Trypanosoma brucei, read-out: IC50 T. brucei brucei
Description: The effects of the tested compounds on the growth of T. brucei brucei were assessed using an Alamar Blue® assay described in B. Raz et al., Acta Trop. 1997, 68, 139. T. brucei brucei AnTat 1.9 (IMTA, Antwerpen, Belgium) was cultured in MEM with Earle's salts, supplemented according to the protocol disclosed in T. Baltz et al., EMBO J. 1985, 4, 1273, with the following modifications: 0.5 mM mercaptoethanol (Sigma-Aldrich), 1.5 mM 1-cysteine (Sigma-Aldrich), 0.05 mM bathocuproine sulfate (Sigma-Aldrich), and 20% heat-inactivated horse serum (Gibco, France) at 37° C. and 5% CO2. Samples were incubated at an average density of 2000 parasites/well in sterile 96-well plates (Fisher, France) with various concentrations of compounds dissolved in 0.9% NaCl. All doses were tested in duplicate. Appropriate controls treated with solvents 0.9% NaCl or DMSO or with suramin, pentamidine, eflornithine, and fexinidazole (reference drugs purchased from Sigma-Aldrich and Fluorochem, UK) were added to each set of experiments. After a 69-hour incubation at 37° C., 10 μl of the viability marker Alamar Blue (Fisher) was added to each well, and the plates were incubated for 5 hour. The plates were read in a PerkinElmer ENSPIRE (Germany) microplate reader using an excitation wavelength of 530 nm and an emission wavelength of 590 nm. The IC50 was defined as the concentration of drug necessary to inhibit by 50% the activity of T. brucei brucei compared to the control. IC50 values were calculated using a non-linear regression analysis of dose-response curves performed using GraphPad Prism software (USA). IC50 values were calculated from three independent experiments.

[7] = tested on: human telomeric sequence F21T; assay: FRET-melting, F21T; settings: K+ condition, 2 μM compound, 0.2 μM oligonucleotide
[8] = tested on: Plasmodium falciparum 3D7; assay: In vitro antiplasmodial activity, SYBR Green I, strain 3D7; settings: Plasmodium falciparum, 3D7, 48 h, read-out: IC50 Plasmodium falciparum 3D7, chloroquine-sensitive strain 3D7, 48-hour incubation
Description: as §1, §2

[9] = 69-hour incubation, Alamar Blue

SMILES	IC50 at 72 h [1]	FRET-melting values in K+ conditions at 2 μM ΔTm FPf8T [2]	FRET-melting values in K+ conditions at 2 μM ΔTm FtryBT [3]	FRET-melting values in K+ conditions at 2 μM ΔTm FPf1T [4]	IC50 (Plasmodium falciparum W2)	FRET-melting values in K+ conditions at 2 μM ΔTm FdxT [5]	IC50 ([6]; 69 h)	FRET-melting values in K+ conditions at 2 μM ΔTm F21T [7]	IC50 [8]	IC50 [6, 9]
CN1CCN(CCCNCc2ccc(-c3nc(-c4ccc(CNCCCN5CCN(C)CC5)cc4)c4ccn(-c5ccccc5)c4n3)cc2)CC1 [Compound 2B, 2,4-bis{4-[(3-(4-methylpiperazin-1-yl)propyl)aminomethyl]phenyl}-7-phenyl-7H-pyrrolo[2,3-d]pyrimidine oxalate]	1.08 µM	20.0 °C	17.3 °C	19.1 °C	1.01 ± 0.16 µM	0.7 °C	0.88 ± 0.07 µM	19.6 °C		
CN(C)CCCNCc1ccc(-c2nc(-c3ccc(CNCCCN(C)C)s3)c3ccn(-c4ccccc4)c3n2)cc1 [Compound 6B, 2-{4-[(3-Dimethylaminopropyl)aminomethyl]phenyl}-4-{5-[(3-dimethylaminopropyl)aminomethyl]thien-2-yl}-7-phenyl-7H-pyrrolo[2,3-d]pyrimidine oxalate]	1.74 µM	26.6 °C	23.1 °C	26.3 °C	0.75 ± 0.16 µM	1.7 °C	0.14 ± 0.02 µM	25.5 °C	1.21 ± 0.18 µM	
CN(C)CCCNCc1ccc(-c2nc(-c3ccc(CNCCCN(C)C)s3)nc3c2ccn3-c2ccccc2)cc1 [Compound 7B, 4-{4-[(3-Dimethylaminopropyl)aminomethyl]phenyl}-2-{5-[(3-dimethylaminopropyl)aminomethyl]thien-2-yl}-7-phenyl-7H-pyrrolo[2,3-d]pyrimidine oxalate]	1.91 µM	12.8 °C	10.5 °C	11.5 °C	2.39 ± 0.08 µM	−0.3 °C	0.63 ± 0.07 µM	13.8 °C	0.88 ± 0.24 µM	
CN(C)CCCNCc1ccc(-c2nc(-c3ccc(CNCCCN(C)C)cc3)c3ccn(C)c3n2)cc1 [Compound 8B, 2,4-bis{4-[(3-dimethylaminopropyl)aminomethyl]phenyl}-7-methyl-7H-pyrrolo[2,3-d]pyrimidine oxalate]	16.4 µM	10.6 °C	9.4 °C	10.3 °C	4.46 ± 0.6 µM	−0.2 °C	0.55 ± 0.05 µM	10.9 °C	1.95 ± 0.69 µM	
CN1CCN(CCCNCc2ccc(-c3nc(-c4ccc(CNCCCN5CCN(C)CC5)cc4)c4ccn(C)c4n3)cc2)CC1 [Compound 9B, 2,4-bis{4-[(3-(4-methylpiperazin-1-yl)propyl)aminomethyl]phenyl}-7-methyl-7H-pyrrolo[2,3-d]pyrimidine oxalate]	39.5 µM	10.1 °C	8.4 °C	10.1 °C	0.13 ± 0.05 µM	0.0 °C	1 ± 0.1 µM	10.4 °C	17.8 ± 3.49 µM	
CN(C)CCCNCc1ccc(-c2nc(Cl)nc3[nH]ccc23)cc1 [Compound 15B, 2-Chloro-4-{4-[(3-dimethylaminopropyl)aminomethyl]phenyl}-7H-pyrrolo[2,3-d]pyrimidine oxalate]	23.7 µM				15.2 ± 2.08 µM	0.1 °C	0.51 ± 0.07 µM	0.3 °C	10.3 ± 0.22 µM	
CN1CCN(CCCNCc2ccc(-c3nc(Cl)nc4[nH]ccc34)cc2)CC1 [Compound 16B, 2-Chloro-4-{4-[(3-(4-methylpiperazin-1-yl)propyl)aminomethyl]phenyl}-7H-pyrrolo[2,3-d]pyrimidine oxalate]	63.5 µM				25.9 ± 4.63 µM	0.1 °C	1.34 ± 0.25 µM	0.8 °C	10.5 ± 0.23 µM	
CN(C)CCCNCc1ccc(-c2nc(Cl)nc3c2ccn3-c2ccccc2)cc1 [Compound 17B, 2-Chloro-4-{4-[(3-dimethylaminopropyl)aminomethyl]phenyl}-7-phenyl-7H-pyrrolo[2,3-d]pyrimidine oxalate]	2.87 µM				0.29 ± 0.04 µM	−0.2 °C	0.02 µM		1.01 ± 0.41 µM	
CN(C)CCCNCc1ccc(-c2nc(Cl)nc3c2ccn3-c2ccccc2)s1 [Compound 19B, 2-Chloro-4-{5-[(3-dimethylaminopropyl)aminomethyl]thien-2-yl}-7-phenyl-7H-pyrrolo[2,3-d]pyrimidine oxalate]	1.88 µM				4.56 ± 0.56 µM	−1.8 °C	0.05 ± 0.01 µM	6.2 °C	1.97 ± 0.36 µM	
CN(C)CCCNCc1ccc(-c2nc(-c3ccc(CNCCCN(C)C)cc3)c3ccsc3n2)cc1 [Compound 26B, 2,4-Bis{4-[(4-dimethylaminopropyl)aminomethyl]phenyl}thieno[2,3-d]pyrimidine oxalate]	2.79 µM	13.2 °C	8.6 °C	11.2 °C	9.95 ± 1.47 µM	0.3 °C		14.1 °C	4.46 ± 0.35 µM	0.46 ± 0.04 µM
CN(C)CCCNCc1ccc(-c2nc(NCCCN(C)C)nc3sccc23)cc1 [Compound 28B, 2-(3-Dimethylaminopropylamino)-4-{4-[(4-dimethylaminopropyl)aminomethyl]phenyl}thieno[2,3-d]pyrimidine oxalate]	35.2 µM				11.5 ± 2.47 µM	−0.77 °C		2.41 °C	0.03 µM	1.1 ± 0.26 µM
